{"source": "patent US20070116736A1", "about": "“Local vascular delivery of PI3 kinase inhibitors alone or in combination with sirolimus to prevent restinosis following vascular injury” (priority 2005, published 2007)", "key": {"[1]": {"tested_on": "human coronary artery smooth muscle cells", "settings": "synchronized cells, two percent fetal bovine serum; for effect of addition of the agent on the percent inhibition of rapamycin: topotecan zero to three hundred nanomolar, etoposide zero to eight hundred nanomolar, Panzem zero to 100 micromolar"}, "[2]": {"tested_on": "cell viability", "experiment": "cell viability assay", "format": "cell-based"}, "[3]": {"tested_on": "human smooth muscle cells", "experiment": "Cladribine Example, PDGF-stimulated cell proliferation (cell count), smooth muscle cells", "format": "cell-based", "settings": "from IC50 values", "method": "To assess the ability of cladribine to prevent cell proliferation, human smooth muscle or endothelial cells (Clonetics, Walkersville, Md.) were seeded at a density of 2000 cells/cm^2 (approximately 3600 cells/well) into each well of 12-well plates and cultured with 1.5 ml of growth medium containing five percent fetal calf serum (FCS). After twenty-four hours, the growth medium was changed and fresh medium containing 10 ng/ml platelet-derived growth factor AB (PDGF AB; LIFE Technologies), as well as various concentrations of cladribine (0.001-10,000 nM) were added with triplicate wells. Medium was replaced with fresh cladribine-containing medium after three days. On day six, cells were detached by trypsinization to yield a cell suspension, lightly centrifuged to pellet and then counted manually using a Neubauer hemocytometer system. Cell viability was assessed by trypan blue exclusion."}, "[4]": {"tested_on": "human coronary artery smooth muscle cells", "experiment": "anti-proliferative activity in non-synchronized cultured human coronary artery smooth muscle cells stimulated with two percent fetal bovine serum", "format": "cell-based", "settings": "for effect of addition of the agent on the anti-proliferative activity of rapamycin: mycophenolic acid zero to one thousand nanomolar, cladribine zero to nine hundred nanomolar", "text": "The multiple curves represent various concentrations of mycophenolic acid ranging from zero to one thousand nanomolar concentrations.\nThe multiple curves represent various concentrations of cladribine ranging from zero to nine hundred nanomolar concentrations."}, "[5]": {"experiment": "porcine drug elution PK study of dual drug eluting coating", "format": "in vivo", "settings": "after eight (8) days of implantation, pig coronary arteries; single layer coating of FIG. 83", "text": "Another critical parameter for the performance of the thrombus resistance of a device coated with cilostazol is the duration of the drug release from the coating. This is of particular significance in the two weeks after device implantation. In the porcine drug elution PK studies of the dual drug eluting coating, both cilostazol and sirolius were slowly released from the coating, resulting in a sustained drug release profile. The purpose of the porcine PK study is to assess the local pharmacokinetics of a drug eluting stent at a given implantation time. Normally three stents are implanted in three different coronary arteries in a pig for a given time point and then retrieved for total drug recovery analysis. The stents are retrieved at predetermined time points; namely, 1, 3 and 8 days. The stents are extracted and the total amount of drug remaining on the stents is determined by analysis utilizing HPLC (high performance liquid chromatography) for total drug amount. The difference between the original amount of drug on the stent and the amount of drug retrieved at a given time represents the amount of drug released in that period. The continuous release of drug into surrounding arterial tissue is what prevents the neointimal growth and restenosis in the coronary artery. A normal plot represents the percentage of total drug released (%, y-axis) vs. time of implantation (day, x-axis). […]"}, "[6]": {"experiment": "in vitro release of sirolimus and cilostazol from stent coating", "format": "physicochemical", "settings": "single layer coating of FIG. 83"}, "[7]": {"experiment": "drug concentration in liquid formulations by liquid chromatography / HPLC assay", "format": "physicochemical"}, "[8]": {"tested_on": "human coronary artery smooth muscle cell", "experiment": "in vitro cell culture study, coronary artery smooth muscle cell proliferation (trichostatin A)", "format": "cell-based", "text": "FIG. 51 is a graph of the inhibition of coronary artery smooth muscle cells by trichostatin A in a cell culture study."}, "[9]": {"tested_on": "tumor cell lines", "settings": "tumor cell lines (Woo et al. 2002); cited from earlier work"}, "[10]": {"tested_on": "human coronary artery smooth muscle cell", "experiment": "MTS cytotoxicity assay", "format": "cell-based", "settings": "concentrations up to 30,000.00 nanomolar", "text": "Typically, a control is utilized to determine baseline toxicity."}}}
{"smiles": "COc1cc([C@@H]2c3cc4c(cc3[C@@H](O[C@@H]3O[C@@H]5CO[C@@H](C)O[C@H]5[C@H](O)[C@H]3O)[C@H]3COC(=O)[C@H]23)OCO4)cc(OC)c1O", "note": "[etoposide]", "values": [{"measurement": "effect of addition of the agent on the percent inhibition of rapamycin", "setting": "[1]", "result": "increases the percent inhibition of rapamycin alone"}, {"measurement": "cytotoxicity in cell viability assay", "setting": "[2]; at concentrations up to ten micromolar", "result": "non-cytotoxic"}]}
{"smiles": "Nc1nc(Cl)nc2c1ncn2[C@H]1C[C@H](O)[C@@H](CO)O1", "note": "[cladribine, 2-chlorodeoxyadenosine]", "values": [{"measurement": "potency as inhibitor of smooth muscle cells relative to endothelial cells", "setting": "[3]", "result": "approximately twice"}, {"measurement": "inhibition of human coronary artery smooth muscle cell proliferation", "setting": "[4]", "result": "completely inhibits"}, {"measurement": "effect of addition of the agent on the anti-proliferative activity of rapamycin", "setting": "[4]", "result": "increases the percent inhibition of rapamycin alone"}]}
{"smiles": "COc1c(C)c2c(c(O)c1C/C=C(\\C)CCC(=O)O)C(=O)OC2", "note": "[mycophenolic acid]", "values": [{"measurement": "effect of addition of the agent on the anti-proliferative activity of rapamycin", "setting": "[4]", "result": "potentiates the anti-proliferative activity of rapamycin"}]}
{"smiles": "O=C1CCc2cc(OCCCCc3nnnn3C3CCCCC3)ccc2N1", "note": "[cilostazol, 6[4-(1-cyclohexyl-1H-tetrazol-5-yl)-butoxy]-3,4-dihydro-2-(1H)-quinolinone]", "values": [{"measurement": "drug remaining in the drug coating", "setting": "[5]", "result": "~80", "unit": "%"}, {"measurement": "in vitro release from coating", "setting": "[6]", "result": "~35", "unit": "%"}]}
{"smiles": "CC[C@@]1(O)C(=O)OCc2c1cc1n(c2=O)Cc2cc3c(CN(C)C)c(O)ccc3nc2-1", "note": "[topotecan]", "values": [{"measurement": "effect of addition of the agent on the percent inhibition of rapamycin", "setting": "[1]", "result": "increases the percent inhibition of rapamycin alone"}, {"measurement": "cytotoxicity in cell viability assay", "setting": "[2]; at concentrations up to one micromolar", "result": "non-cytotoxic"}]}
{"smiles": "CO[C@H]1C[C@@H]2CC[C@@H](C)[C@@](O)(O2)C(=O)C(=O)N2CCCC[C@H]2C(=O)O[C@H]([C@H](C)C[C@@H]2CC[C@@H](O)[C@H](OC)C2)CC(=O)[C@H](C)/C=C(\\C)[C@@H](O)[C@@H](OC)C(=O)[C@H](C)C[C@H](C)/C=C/C=C/C=C/1C", "note": "[rapamycin]", "values": [{"measurement": "drug remaining in the drug coating", "setting": "[5]", "result": "~80", "unit": "%"}, {"measurement": "concentration in formulation relative to solubility of sirolimus in water", "setting": "[7]; 4 mg/ml PEG 200 formulation", "result": "four hundred to about one thousand"}]}
{"smiles": "CO[C@H]1C[C@@H]2CC[C@@H](C)[C@@](O)(O2)C(=O)C(=O)N2CCCC[C@H]2C(=O)O[C@H]([C@H](C)C[C@@H]2CC[C@@H](OC(=O)C(C)(CO)CO)[C@H](OC)C2)CC(=O)[C@H](C)/C=C(\\C)[C@@H](O)[C@@H](OC)C(=O)[C@H](C)C[C@H](C)/C=C/C=C/C=C/1C", "note": "[CCI-779]", "values": [{"measurement": "concentration of CCI-779 in the final solution (HPLC assay)", "setting": "[7]; Vitamin E TPGS, water, ethanol less than two percent", "result": 15000, "unit": "µg/mL"}]}
{"smiles": "CC(/C=C/C(=O)NO)=C\\[C@@H](C)C(=O)c1ccc(N(C)C)cc1", "note": "[trichostatin A]", "values": [{"measurement": "IC50", "setting": "[8]; human coronary artery smooth muscle cell proliferation, read-out: anti-proliferative IC50", "result": "~6", "unit": "nM"}, {"measurement": "inhibition of human coronary artery smooth muscle cell proliferation", "setting": "[8]; in vitro cell culture", "result": "completely inhibit"}, {"measurement": "anti-proliferative IC50", "setting": "[9]", "result": "low nM range"}]}
{"smiles": "COc1cc2c(cc1O)CC[C@@H]1[C@@H]2CC[C@]2(C)[C@@H](O)CC[C@@H]12", "note": "[Panzem®, 2-methoxyestradiol]", "values": [{"measurement": "inhibition of human coronary artery smooth muscle cell proliferation in vitro", "setting": "[1]", "result": "extremely effective inhibitor"}, {"measurement": "effect of addition of the agent on the percent inhibition of rapamycin", "setting": "[1]", "result": "increases the percent of inhibition of rapamycin alone"}, {"measurement": "human coronary artery smooth muscle cell survival (MTS assay)", "setting": "[10]", "result": "do not reduce human coronary artery smooth muscle cell survival"}]}
